In publication PMC4805609, “Estrogenic Effects of Several BPA Analogs in the Developing Zebrafish Brain” (Frontiers in Neuroscience, 2016):

Experiments:
cyp19a1b gene = test: RT-qPCR of cyp19a1b transcripts in wild type 7-dpf larva brains; conditions: for fold induction at 1 µM: Danio rerio, read-out: cyp19a1b gene expression, fold induction relative to DMSO, 1 μM, 7-dpf larvae brains, six independent exposures, Figure 1B
Procedure: (§1) For subsequent RT-qPCR and in situ hybridization analysis with wild type zebrafish, groups of 80 embryos (for each condition) were placed after 1 day post-fertilization (1-dpf) in a large glass flask containing 100 ml of embryonic medium (Mouriec et al., [2009b]). […] The embryos were held in the exposure flasks until 7-dpf larva stage. […] Embryos were maintained in the exposure dishes until 4-dpf larva stage. During the treatment period, 100% of the exposure medium was renewed every 24 h (for both wild type and transgenic zebrafish).
Tissue was sonicated (10 s, 3 times) in 250 μL Trizol Reagent (Invitrogen) and RNA extractions were carried out according to the manufacturer's protocol. Reverse transcription was carried out by incubating 2μg total RNA with 1μg of random primer oligonucleotides, 2.5ṁM dNTPs, and 50 U MMLV-RT (Promega) in the appropriate buffer for 10 min at 65°C and 60 min at 37°C. Quantitative Polymerase chain reaction (qPCR) experiments were performed in an iCycler thermocycler coupled to the MyiQ detector (Bio-Rad. Hercules, CA, USA) using iQ SYBR-Green Supermix (Bio-Rad) according to the manufacturer's protocol. The following primers were used: ef1 (fw) 5′-[…]-3′; ef1 (rev) 5′-[…]-3′; cyp19a1b (AroB; fw) 5′-[…] For each condition, the RT-PCR experiment was run in triplicates. Expression levels of ef1 mRNA were used to normalize cyp19a1b expression levels. Melting curve and PCR efficiency analyses were performed to confirm correct amplification. For quantification of PCR results, the threshold cycle (Ct) was determined for each reaction. Ct values for each gene of interest were normalized with the housekeeping gene ef1, using the ΔΔCt method. Normalized values were used to calculate the degree of induction or inhibition expressed as a “fold difference” compared to normalized control values.

cyp19a1b promoter = test: EASZY assay: GFP fluorescence in brain of live cyp19a1b-GFP transgenic 4-dpf larvae; assay type: in vivo, zebrafish; conditions: 4-dpf cyp19a1b-GFP larvae, exposure 2 hpf to 4 dpf; for fold induction at 1 µM: Danio rerio, read-out: GFP fluorescence, fold induction above DMSO control
Procedure: Quantification of fluorescence in transgenic cyp19a1b-GFP zebrafish larva brain was performed according to Brion et al. ([2012]). In this assay, estrogenic activity is detected in living 4 days-old larvae (treated or not with an estrogen mimic compound) from the observation of the reporter gene fluorescence in the radial glial cells. […] All photographs were taken using the same parameters: only the head was photographed under a X10 objective, with a 134 ms exposure time and maximal intensity. Photographs were analyzed using the Axiovision Imaging software and fluorescence quantification was performed using the ImageJ software (http://rsbweb.nih.gov/ij/). For each picture, the integrated density was measured, i.e., the sum of the gray-values of all the pixels within the region of interest. A gray-value of 290 was defined as background value. For each micrograph the fluorescence fold induction of fluorescence was calculated comparing the integrated pixel density with the average fluorescence induction obtained in the control group.

cyp19a1b transcripts = test: cyp19a1b in situ hybridization on 7-dpf brain sections; assay type: in vivo, zebrafish; conditions: 1 μM, 7-dpf larvae; for distribution of cyp19a1b transcripts in the whole brain: transverse sections
Procedure: as §1
Larvae used for in situ hybridization experiments originated from the same exposition groups than RT-qPCR experiments. After exposure to the different conditions, 10 wild type 7-dpf larvae (for each treatment) were fixed overnight at 4°C in 4% paraformaldehyde, before embedding in parrafin. Serial thin transverse sections ([…]) were placed on cryofrost slides and subjected to in situ hybridization experiments. Sense and antisense digoxigenin-labeled riboprobes for the cyp19a1b gene were transcribed using the Digoxigenin RNA labeling kit in accordance with the manufacturer's instructions (Roche, Mannheim, Germany) and as previously described (Menuet et al., [2005]). The brain sections were processed for in situ hybridization using stringent conditions as previously published (D'Amico et al., [2011], [2013]). After NBT/BCIP revelation, sections were counterstained with DAPI, and mounted in a drop of vectashield (Vector Laboratories). All sections were photographed with an Olympus PROVIS AX70 microscope with a digital camera (Olympus SP71), or a Nikon multizoom AZ100 macroscope with a DS-Ri1 color camera.

zfERα = target: T1, zfERα (Danio rerio, UniProt P57717); test: cyp19a1b-luciferase reporter gene assay in U251-MG glial cells transfected with zfERα; assay type: cell-based, zebrafish; design: containing the coding regions of each zebrafish estrogen receptor cDNA; expressed in transfected cells; host or cells: human U251-MG glial cells (ER-negative); conditions: 10–6 M, 24 h, U251-MG cells with ERα, vs DMSO
T1 sequence (P57717 1-569): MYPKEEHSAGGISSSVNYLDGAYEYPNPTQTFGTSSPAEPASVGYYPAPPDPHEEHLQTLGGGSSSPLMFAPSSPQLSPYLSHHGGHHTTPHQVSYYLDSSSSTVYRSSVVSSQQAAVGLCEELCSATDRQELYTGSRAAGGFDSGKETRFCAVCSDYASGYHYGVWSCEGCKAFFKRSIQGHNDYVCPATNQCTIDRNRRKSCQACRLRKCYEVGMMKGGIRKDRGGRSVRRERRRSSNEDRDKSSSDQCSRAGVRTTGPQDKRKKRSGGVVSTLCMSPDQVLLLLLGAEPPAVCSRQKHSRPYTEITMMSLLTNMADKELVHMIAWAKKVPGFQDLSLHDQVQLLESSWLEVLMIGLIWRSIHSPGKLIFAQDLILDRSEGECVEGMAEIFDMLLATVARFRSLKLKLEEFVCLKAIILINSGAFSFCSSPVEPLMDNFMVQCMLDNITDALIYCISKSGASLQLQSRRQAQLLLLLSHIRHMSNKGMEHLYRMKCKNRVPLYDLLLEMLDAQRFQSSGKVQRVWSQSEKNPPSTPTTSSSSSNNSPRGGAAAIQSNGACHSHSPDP
Procedure: (§2) The medium was also supplemented with 20 U/mL penicillin, 20 μg/mL streptomycin, and 50 ng/mL amphotericin B (Gibco). For transfections, cells were plated in 24-well plates at a density of 25,000 cells/ml in the same medium, except the fetal calf serum was charcoal-treated and used at a concentration of 2.5%. Cells were transfected with 25 ng/well either the vector expression containing or not the zfERα, zfERβ1, zfERβ2 coding region and cytomegalovirus [CMV]−β-Galactosidase, and 150 ng/well of the cyp19a1b-Luciferase reporter plasmid, using JetPEI as a transfection reagent (Polyplus Transfection, Illkirch, France). […] Luciferase activity was measured 24 h later (Luciferase assay system, Promega, Madison, WI, USA). β-Galactosidase activity was used to normalize transfection efficiency. Chemicals were tested in at least 3 independent experiments and each experiment was performed in triplicate.

zfERβ2 = zfERβ2 (Danio rerio, UniProt Q7ZU32); test: cyp19a1b-luciferase reporter gene assay in U251-MG glial cells transfected with zfERβ2; assay type: cell-based, zebrafish; conditions: 10–6 M, 24 h, U251-MG cells with ERβ2, vs DMSO
Procedure: as §2

Sequence of zfERβ2 (Q7ZU32 1-553): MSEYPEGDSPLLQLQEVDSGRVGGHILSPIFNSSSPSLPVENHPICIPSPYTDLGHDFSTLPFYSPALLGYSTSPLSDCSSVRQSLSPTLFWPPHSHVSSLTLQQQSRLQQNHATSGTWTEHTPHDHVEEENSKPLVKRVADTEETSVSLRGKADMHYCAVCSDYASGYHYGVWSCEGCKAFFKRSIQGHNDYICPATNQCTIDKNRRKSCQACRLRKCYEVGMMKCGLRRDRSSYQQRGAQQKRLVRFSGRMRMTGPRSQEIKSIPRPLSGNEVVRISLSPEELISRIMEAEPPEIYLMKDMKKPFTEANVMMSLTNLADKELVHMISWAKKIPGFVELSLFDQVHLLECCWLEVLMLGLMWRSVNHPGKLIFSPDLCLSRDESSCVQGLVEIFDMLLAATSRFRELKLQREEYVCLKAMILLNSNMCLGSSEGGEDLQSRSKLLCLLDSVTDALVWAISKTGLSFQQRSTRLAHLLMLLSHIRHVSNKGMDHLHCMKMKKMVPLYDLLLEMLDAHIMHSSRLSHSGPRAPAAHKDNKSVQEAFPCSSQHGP

Row | SMILES | fold induction at 1 µM (cyp19a1b gene) | fold induction at 1 µM (cyp19a1b promoter) | distribution of cyp19a1b transcripts in the whole brain (cyp19a1b transcripts) | cyp19a1b-luciferase reporter gene induction (zfERα) | cyp19a1b gene expression, fold induction relative to DMSO (cyp19a1b gene; 1 μM, 7-dpf larvae brains, six independent exposures, Figure 1B) | GFP fluorescence, fold induction above DMSO control (cyp19a1b promoter; 1 μM) | cyp19a1b transcripts in the nucleus recessus posterioris (nrp), caudal hypothalamus (cyp19a1b transcripts) | cyp19a1b-luciferase reporter gene induction (zfERβ2)
1 | Oc1ccc(C(c2ccc(O)cc2)(C(F)(F)F)C(F)(F)F)cc1 [BPAF, 2,2-bis(4-hydroxylphenyl)hexafluoropropane] | ~43 | 14 | identical to EE2- and BPA-treated animals | significant stimulation | – | – | – | –
2 | CC(c1ccccc1)(c1ccc(O)cc1)c1ccc(O)cc1 [BPAP, 4,4′-(1-phenylethylidene)bisphenol] | – | – | induces expression of cyp19a1b transcripts in only a few (xeno) estrogen-sensitive cyp19a1b expression sites | did not stimulate | no effect | did not affect GFP fluorescence signal | increase in cyp19a1b transcripts in the nrp region (Figure 5H) albeit to a lower levels | did not stimulate
3 | O=S(=O)(c1ccc(O)cc1)c1ccc(O)cc1 [BPS, bis-(4-hydroxyphenyl)sulfone] | ~41 | 6 | identical to EE2- and BPA-treated animals | did not stimulate | – | – | – | did not stimulate
